Data published in patent US6504058B1 (priority 1997, dated 2003).
Read-outs that look alike come from different tables or passages of the source.

Key:
Pyricularia oryzae = type: in vivo, Pyricularia oryzae (on rice seedlings); conditions: 100 = 100% disease control, 0 = no control, # = significant activity
[1] = system: Erysiphe graminis f. sp. tritici; test: Test A: wheat powdery mildew, preventive spray on wheat seedlings, disease rating; type: in vivo, Erysiphe graminis f. sp. tritici (on wheat seedlings); conditions: 200 ppm test suspension sprayed to run-off (equivalent to 500 g/ha) on wheat seedlings; 100 = 100% disease control, 0 = no control; # = significant activity
Description: (§1) Test compounds were first dissolved in acetone in an amount equal to 3% of the final volume and then suspended at a concentration of 200 ppm in purified water containing 250 ppm of the surfactant Trem® 014 (polyhydric alcohol esters). The resulting test suspensions were then used in the following test. Spraying these 200 ppm test suspensions to the point of run-off on the test plants is the equivalent of a rate of 500 g/ha.
The test suspension was sprayed to the point of run-off on wheat seedlings. The following day the seedlings were inoculated with a spore dust of Erysiphe graminis f. sp. tritici, (the causal agent of wheat powdery mildew) and incubated in a growth chamber at 20° C. for 7 days, after which disease ratings were made.
(§2) Results for Tests A-E are given in Table A. In the table, a rating of 100 indicates 100% disease control and a rating of 0 indicates no disease control (relative to the controls). A dash (-) indicates no test results. ND indicates disease control not determined due to phytotoxicity. # indicates significant activity.

Puccinia recondita = test: Test B: wheat leaf rust, preventive spray on wheat seedlings, disease rating; type: in vivo, Puccinia recondita (on wheat seedlings); conditions: 200 ppm test suspension sprayed to run-off (equivalent to 500 g/ha) on wheat seedlings; 100 = 100% disease control, 0 = no control; # = significant activity
Description: as §1
(§3) The test suspension was sprayed to the point of run-off on wheat seedlings. The following day the seedlings were inoculated with a spore suspension of Puccinia recondita (the causal agent of wheat leaf rust) and incubated in a saturated atmosphere at 20° C. for 24 h, and then moved to a growth chamber at 20° C. for 6 days, after which disease ratings were made.
as §2

Botrytis cinerea = test: Test E: gray mold, preventive spray on cucumber seedlings, disease rating; type: in vivo, Botrytis cinerea (on cucumber seedlings); conditions: 200 ppm test suspension sprayed to run-off (equivalent to 500 g/ha) on cucumber seedlings; 100 = 100% disease control, 0 = no control; # = significant activity
Description: as §1
as §3, with “cucumber” for “wheat”, “Botrytis cinerea” for “Puccinia recondita”, “gray mold on many crops)” for “wheat leaf rust)”, “48” for “24”, “and” for “and then”, “5” for “6”
as §2

Phytophthora infestans = type: in vivo, Phytophthora infestans (on tomato seedlings); conditions: 200 ppm test suspension sprayed to run-off (equivalent to 500 g/ha) on tomato seedlings; 100 = 100% disease control, 0 = no control; # = significant activity
[2] = 200 ppm test suspension sprayed to run-off (equivalent to 500 g/ha) on rice seedlings
[3] = Tested at 40 ppm, rice seedlings

Compound: CC(COc1ccccc1F)NC(=O)C1(C(F)(F)F)CC(C)(Cl)C1 (stereo not shown) [compound 26]
- Test C disease control rating (rice blast) (Pyricularia oryzae; [2]): 100# (a rating of 100 indicates 100% disease control)

Compound: CC(NC(=O)C1CC(C)(Cl)C1)C(Oc1cc(F)ccc1F)c1ccccc1 (stereo not shown) [compound 32]
- Test C disease control rating (rice blast) (Pyricularia oryzae; [2]): 52%
- Test A disease control rating (wheat powdery mildew) [1]: 59%
- Test B disease control rating (wheat leaf rust) (Puccinia recondita): 0 (a rating of 0 indicates no disease control (relative to the controls))
- Test E disease control rating (gray mold) (Botrytis cinerea): 0 (a rating of 0 indicates no disease control (relative to the controls))
- Test D disease control rating (potato and tomato late blight) (Phytophthora infestans): 0 (a rating of 0 indicates no disease control (relative to the controls))

Compound: CC(NC(=O)C1CC(C)(Cl)C1)C(Oc1ccccc1C#N)c1ccccc1 (stereo not shown) [compound 35]
- Test C disease control rating (rice blast) (Pyricularia oryzae; [2]): 86# %
- Test A disease control rating (wheat powdery mildew) [1]: 0 (a rating of 0 indicates no disease control (relative to the controls))
- Test B disease control rating (wheat leaf rust) (Puccinia recondita): 0 (a rating of 0 indicates no disease control (relative to the controls))
- Test E disease control rating (gray mold) (Botrytis cinerea): 0 (a rating of 0 indicates no disease control (relative to the controls))
- Test D disease control rating (potato and tomato late blight) (Phytophthora infestans): 0 (a rating of 0 indicates no disease control (relative to the controls))

Compound: CC(NC(=O)C1(C)CC(C)(Br)C1)c1ccc(Br)cc1 (stereo not shown) [compound 18]
- Test C disease control rating (rice blast) (Pyricularia oryzae; [2]): 99# %
- Test A disease control rating (wheat powdery mildew) [1]: 0 (a rating of 0 indicates no disease control (relative to the controls))
- Test B disease control rating (wheat leaf rust) (Puccinia recondita): 0 (a rating of 0 indicates no disease control (relative to the controls))
- Test E disease control rating (gray mold) (Botrytis cinerea): 0 (a rating of 0 indicates no disease control (relative to the controls))
- Test D disease control rating (potato and tomato late blight) (Phytophthora infestans): 0 (a rating of 0 indicates no disease control (relative to the controls))

Compound: COc1cc(Br)ccc1C(C)NC(=O)C1(C)CC(C)(Cl)C1 (stereo not shown) [compound 60]
- Test C disease control rating (rice blast) (Pyricularia oryzae; [2]): 100# (a rating of 100 indicates 100% disease control)
- Test A disease control rating (wheat powdery mildew) [1]: 0 (a rating of 0 indicates no disease control (relative to the controls))
- Test B disease control rating (wheat leaf rust) (Puccinia recondita): 0 (a rating of 0 indicates no disease control (relative to the controls))
- Test E disease control rating (gray mold) (Botrytis cinerea): 0 (a rating of 0 indicates no disease control (relative to the controls))
- Test D disease control rating (potato and tomato late blight) (Phytophthora infestans): 23%

Compound: COc1cc(Br)ccc1C(C)NC(=O)C1(C)CC(C)(F)C1 (stereo not shown) [compound 70]
- Test C disease control rating (rice blast) (Pyricularia oryzae; [2]): 97# %
- Test A disease control rating (wheat powdery mildew) [1]: 0 (a rating of 0 indicates no disease control (relative to the controls))
- Test B disease control rating (wheat leaf rust) (Puccinia recondita): 0 (a rating of 0 indicates no disease control (relative to the controls))
- Test E disease control rating (gray mold) (Botrytis cinerea): 19%
- Test D disease control rating (potato and tomato late blight) (Phytophthora infestans): 20%

Compound: CC(NC(=O)C1(C)CC(Cl)(CCl)C1)c1ccc2ccccc2c1 (stereo not shown) [compound 63]
- Test C disease control rating (rice blast) (Pyricularia oryzae; [2]): 53%
- Test A disease control rating (wheat powdery mildew) [1]: 0 (a rating of 0 indicates no disease control (relative to the controls))
- Test B disease control rating (wheat leaf rust) (Puccinia recondita): 0 (a rating of 0 indicates no disease control (relative to the controls))
- Test E disease control rating (gray mold) (Botrytis cinerea): 0 (a rating of 0 indicates no disease control (relative to the controls))
- Test D disease control rating (potato and tomato late blight) (Phytophthora infestans): 37%

Compound: CC(NC(=O)C1(C(F)(F)F)CC(C)(Cl)C1)c1ccc(Cl)cc1Cl (stereo not shown) [compound 9]
- Test C disease control rating (rice blast) (Pyricularia oryzae; [2]): 100# (a rating of 100 indicates 100% disease control)
- Test A disease control rating (wheat powdery mildew) [1]: 0 (a rating of 0 indicates no disease control (relative to the controls))
- Test B disease control rating (wheat leaf rust) (Puccinia recondita): 0 (a rating of 0 indicates no disease control (relative to the controls))
- Test E disease control rating (gray mold) (Botrytis cinerea): 0 (a rating of 0 indicates no disease control (relative to the controls))
- Test D disease control rating (potato and tomato late blight) (Phytophthora infestans): 0 (a rating of 0 indicates no disease control (relative to the controls))

Compound: CC(COc1cc(Cl)ccc1F)NC(=O)C1(C)CC(C)(Cl)C1 (stereo not shown) [compound 52]
- Test C disease control rating (rice blast) (Pyricularia oryzae; [2]): 100# (a rating of 100 indicates 100% disease control)
- Test A disease control rating (wheat powdery mildew) [1]: 83# %
- Test B disease control rating (wheat leaf rust) (Puccinia recondita): 0 (a rating of 0 indicates no disease control (relative to the controls))
- Test E disease control rating (gray mold) (Botrytis cinerea): 0 (a rating of 0 indicates no disease control (relative to the controls))
- Test D disease control rating (potato and tomato late blight) (Phytophthora infestans): 0 (a rating of 0 indicates no disease control (relative to the controls))

Compound: CC(COc1cc(Br)ccc1C#N)NC(=O)C1(C)CC(C)(Cl)C1 (stereo not shown) [compound 48]
- Test C disease control rating (rice blast) (Pyricularia oryzae; [2]): 99# %
- Test A disease control rating (wheat powdery mildew) [1]: 96# %
- Test B disease control rating (wheat leaf rust) (Puccinia recondita): 85# %
- Test E disease control rating (gray mold) (Botrytis cinerea): 0 (a rating of 0 indicates no disease control (relative to the controls))
- Test D disease control rating (potato and tomato late blight) (Phytophthora infestans): 47%

Compound: CC(COc1ccc(Cl)cc1C#N)NC(=O)C1(C)CC(C)(Cl)C1 (stereo not shown) [compound 41]
- Test C disease control rating (rice blast) (Pyricularia oryzae; [2]): 0 (a rating of 0 indicates no disease control (relative to the controls))
- Test A disease control rating (wheat powdery mildew) [1]: 0 (a rating of 0 indicates no disease control (relative to the controls))
- Test B disease control rating (wheat leaf rust) (Puccinia recondita): 0 (a rating of 0 indicates no disease control (relative to the controls))
- Test E disease control rating (gray mold) (Botrytis cinerea): 19%
- Test D disease control rating (potato and tomato late blight) (Phytophthora infestans): 85# %

Compound: CC(NC(=O)C1CC(C)(Cl)C1)C(Oc1cc(F)ccc1C#N)c1ccccc1 (stereo not shown) [compound 34]
- Test C disease control rating (rice blast) (Pyricularia oryzae; [2]): 52%
- Test A disease control rating (wheat powdery mildew) [1]: 59%
- Test B disease control rating (wheat leaf rust) (Puccinia recondita): 0 (a rating of 0 indicates no disease control (relative to the controls))
- Test E disease control rating (gray mold) (Botrytis cinerea): 0 (a rating of 0 indicates no disease control (relative to the controls))
- Test D disease control rating (potato and tomato late blight) (Phytophthora infestans): 45%

Compound: CC(NC(=O)C1(C(F)(F)F)CC(C)(Cl)C1)c1ccc(Br)cc1 (stereo not shown) [compound 4]
- Test C disease control rating (rice blast) (Pyricularia oryzae; [2]): 100# (a rating of 100 indicates 100% disease control)

Compound: CC(COc1cc(F)ccc1Cl)NC(=O)C1(C)CC(C)(Br)C1 (stereo not shown) [compound 56]
- Test C disease control rating (rice blast) (Pyricularia oryzae; [2]): 100# (a rating of 100 indicates 100% disease control)
- Test A disease control rating (wheat powdery mildew) [1]: 99# %
- Test B disease control rating (wheat leaf rust) (Puccinia recondita): 0 (a rating of 0 indicates no disease control (relative to the controls))
- Test E disease control rating (gray mold) (Botrytis cinerea): 0 (a rating of 0 indicates no disease control (relative to the controls))
- Test D disease control rating (potato and tomato late blight) (Phytophthora infestans): 0 (a rating of 0 indicates no disease control (relative to the controls))

Compound: COc1cc(Br)ccc1C(C)NC(=O)C1(C)CC(C)(Cl)C1 (stereo not shown) [compound 59]
- Test C disease control rating (rice blast) (Pyricularia oryzae; [2]): 100# (a rating of 100 indicates 100% disease control)
- Test A disease control rating (wheat powdery mildew) [1]: 0 (a rating of 0 indicates no disease control (relative to the controls))
- Test B disease control rating (wheat leaf rust) (Puccinia recondita): 85# %
- Test E disease control rating (gray mold) (Botrytis cinerea): 0 (a rating of 0 indicates no disease control (relative to the controls))
- Test D disease control rating (potato and tomato late blight) (Phytophthora infestans): 23%

Compound: CC(NC(=O)C1(Cl)CC(C)(Cl)C1)c1ccc(Br)cc1 (stereo not shown) [compound 16]
- Test C disease control rating (rice blast) (Pyricularia oryzae; [3]): 98#* %

Compound: (R)-N-[1-(4-bromophenyl)ethyl]-3,3-difluoro-1-methylcyclobutanecarboxamide [Example 3]
- Test C disease control rating (rice blast) (Pyricularia oryzae; [2]): 82# %

Compound: CC(NC(=O)C1(C(F)(F)F)CC(C)(Cl)C1)c1ccc(Cl)cc1 (stereo not shown) [Compound 7]
- Test C disease control rating (rice blast) (Pyricularia oryzae; [2]): 100# (a rating of 100 indicates 100% disease control)

Compound: CC(NC(=O)C1(C(F)(F)F)CC(C)(Cl)C1)c1ccc(Br)cc1 (stereo not shown) [compound 5]
- Test C disease control rating (rice blast) (Pyricularia oryzae; [2]): 100# (a rating of 100 indicates 100% disease control)

Compound: CC(CCc1ccccc1)NC(=O)C1(C(F)(F)F)CC(C)(Cl)C1 (mixture of isomers) [compound 2]
- Test C disease control rating (rice blast) (Pyricularia oryzae; [2]): 64# %

Compound: CC(NC(=O)C1(C(F)(F)F)CC(C)(Cl)C1)c1ccc(Br)cc1 (mixture of isomers) [compound 1]
- Test C disease control rating (rice blast) (Pyricularia oryzae; [2]): 100# (a rating of 100 indicates 100% disease control)

Compound: CC(NC(=O)C1(Cl)CC(C)(Cl)C1)c1ccc(Br)cc1 (stereo not shown) [compound 15]
- Test C disease control rating (rice blast) (Pyricularia oryzae; [3]): 94#* %

Compound: CC(NC(=O)C1(C(F)(F)F)CC(C)(Cl)C1)c1ccc(Cl)cc1 (stereo not shown) [compound 6]
- Test C disease control rating (rice blast) (Pyricularia oryzae; [2]): 98# %

Compound: CC(COc1ccccc1F)NC(=O)C1(C(F)(F)F)CC(C)(Cl)C1 (stereo not shown) [compound 25]
- Test C disease control rating (rice blast) (Pyricularia oryzae; [2]): 97# %
